Measurements from PMC10475101, “Selective steroidogenic cytochrome P450 haem iron ligation by steroid-derived isonitriles” (Communications Chemistry, 2023).
Values joined by “and” are separate entries in the source; they are usually repeats but may differ in a detail not shown here. Identical values can stand only once.

Key:
CYP3A4 [1] = target: T1, CYP3A4 (Homo sapiens, UniProt P08684); test: in vitro; type: binding
T1 construct: made in house
Protocol: (Adapted from DeVore, et al.)[25] Ligand interaction with the heme iron was evaluated by titrating ligands into a cuvette containing purified CYP17A1[14], CYP2D6 L230D/L231R[26], or CYP3A4[27] and measured using a UV-visible scanning spectrophotometer. Enzyme was diluted to 0.2 µM in 100 mM potassium phosphate buffer (pH 7.4), 20% glycerol, and 100 mM sodium chloride and divided equally between two 5 mL cuvettes to evaluate high-affinity binding. Ligands dissolved in dimethylsulfoxide (DMSO) were added to the sample cuvette and an equal volume of DMSO to the reference cuvette. Difference spectra were recorded from 300 to 500 nm after equilibration of enzyme and ligand. Binding to the enzyme was measured as the difference in maximal and minimal absorbance: A387—A419 for pregnanolone and 3-formyl pregnanolone, and A435—A393 for compound 1 with CYP17A1; A434—A414 for compound 1 with CYP3A4 and CYP2D6. The dissociation constant and maximum spectral change were calculated using tight-binding or quadratic equation. All data fitting was accomplished using GraphPad Prism 9. Details of fitting are provided in Supplementary Information, and numerical data used to generate graphs in Figs. 2, 4 and 5 are provided in Supplementary Data 3 in Excel format.

CYP3A4 [2] = target: T1, CYP3A4
Protocol: Reduction of the 1-bound P450 complex was observed by taking a baseline absorbance reading from 400 to 500 nm using a UV-visible scanning spectrophotometer, of a 1 cm quartz cuvette containing 1 µM P450, with compound 1 at a saturating concentration (i.e., ≥ concentration needed to reach ΔAmax), in binding assay buffer (100 mM potassium phosphate buffer (pH 7.4), 20% glycerol, and 100 mM sodium chloride). A small quantity of sodium dithionite (spatula tip-full) was then added to the cuvette, and the spectra were recorded periodically over time to observe the formation of peaks indicating the reduction (~426 and 456 nm) and subsequent reoxidation (~435 nm) of the complex. The total time course for Fig. 6B was 103 min and 37 s. Numerical data used to generate graphs in Fig. 6 are provided in Supplementary Data 3 in Excel format.
185 S2) Ligand binding and inhibition assays
186 Reduction and reoxidation assays. Reduction of the isonitrile-bound P450 complex was observed by taking
187 a baseline absorbance reading from 400 to 500 nm using a UV-visible scanning spectrophotometer, of a 1cm
188 quartz cuvette containing 1 µM P450, with the selected isonitrile compound at a saturating concentration
189 (i.e., ≥ concentration needed to reach ΔAmax), in the same buffer used for binding assays (100 mM potassium
190 phosphate buffer (pH 7.4), 20% glycerol, and 100 mM sodium chloride). A small quantity of sodium dithionite
191 (spatula tip-full) was then added to the cuvette, and the spectra were recorded periodically over time to
192 observe the formation of peaks indicating the reduction (~426 and 456 nm) and subsequent reoxidation
193 (~435 nm) of the complex. The total time course for Figure 6B was 103 minutes and 37 seconds. […]
217 initiated by adding NADPH to a final concentration of 1 mM. After 20 minutes, metabolism was quenched
218 by adding 50 µL acetonitrile and placed on ice. The reaction vials were centrifuged at 5000 xg for 5 minutes
219 to pellet the precipitated protein, then the supernatant was injected onto a C18 column (Phenomenex, Luna,
220 50 x 4.6 mm) for HPLC. Separation on HPLC was obtained using a mobile phase of 45%/55% water/methanol
221 for 40 minutes. A standard curve of known product concentrations was used to convert the area under the
222 curve to the amount of product produced.
224 S3) Crystallization of 1-CYP17A1 complex and X-ray diffraction
225 Protein Crystallization and Structure Determination. CYP17A1 was saturated with 3β-formyl-5α
226 pregnanolone-20(R)-isonitrile (verified by 430 nm Soret peak) and prepared for crystallization via hanging

CYP106A2 = CYP106A2 (Priestia megaterium, UniProt Q06069); test: Absorbance difference spectra titration of CYP106A2; type: binding, bacterial; conditions: 1 µM CYP106A2
CYP106A2, sequence (Q06069 whole entry): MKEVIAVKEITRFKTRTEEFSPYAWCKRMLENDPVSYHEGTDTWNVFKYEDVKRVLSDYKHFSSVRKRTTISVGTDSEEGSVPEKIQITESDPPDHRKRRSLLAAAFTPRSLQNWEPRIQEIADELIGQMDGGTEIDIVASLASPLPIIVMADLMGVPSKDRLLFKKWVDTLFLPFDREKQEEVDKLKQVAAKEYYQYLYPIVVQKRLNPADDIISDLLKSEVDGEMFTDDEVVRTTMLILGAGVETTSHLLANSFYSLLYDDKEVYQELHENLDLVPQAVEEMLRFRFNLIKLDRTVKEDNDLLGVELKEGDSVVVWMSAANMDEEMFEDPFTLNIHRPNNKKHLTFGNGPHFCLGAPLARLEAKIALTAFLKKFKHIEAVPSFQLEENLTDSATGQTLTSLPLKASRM
Protocol: Fig. 5 CYP106A2 interaction with steroidal isonitriles. […] Maximum concentration of 2 (light blue trace) is 20 µM. […] Maximum concentration of 4 is ~10 µM (blue trace). C Overlay of 800 MHz ^1H,^15N-TROSY-HSQC spectra of ^15N-Gly-labeled CYP106A2 with levopimaric acid p-benzoquinone Diels-Alder adduct bound after reduction with sodium dithionite and treatment with carbon monoxide (red), or with 7,17-(bis)isonitrile 4 (blue) after anaerobic reduction with sodium dithionite.

[3] = CYP3A4/20-(R)-1 complex reduced by sodium dithionite

T1 sequence (P08684 whole entry): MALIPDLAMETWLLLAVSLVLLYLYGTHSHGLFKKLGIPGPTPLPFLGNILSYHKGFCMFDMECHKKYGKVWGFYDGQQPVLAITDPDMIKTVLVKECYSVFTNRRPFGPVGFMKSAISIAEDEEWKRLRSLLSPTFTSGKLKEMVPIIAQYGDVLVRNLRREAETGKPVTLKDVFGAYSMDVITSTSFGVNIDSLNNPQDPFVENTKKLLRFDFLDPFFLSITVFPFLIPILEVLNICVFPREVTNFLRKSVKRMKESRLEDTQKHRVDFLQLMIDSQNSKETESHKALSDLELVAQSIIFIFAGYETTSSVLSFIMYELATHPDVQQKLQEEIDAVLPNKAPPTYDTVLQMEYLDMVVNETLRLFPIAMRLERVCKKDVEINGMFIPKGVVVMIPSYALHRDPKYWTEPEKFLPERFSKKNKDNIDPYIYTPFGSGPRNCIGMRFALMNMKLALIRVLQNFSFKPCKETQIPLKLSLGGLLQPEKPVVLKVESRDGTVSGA

SMILES: [C-]#[N+][C@H](C)[C@H]1CC[C@H]2[C@@H]3CC[C@H]4C[C@@H](OC=O)CC[C@]4(C)[C@H]3CC[C@]12C [Compound 1, 3β-formyl-5α-pregnanolone-(R)-20-isonitrile]
- contribution of Fe—C dative bond to the free energy of complexation (CYP3A4 [1]; CYP3A4, from Kd of 20-(R)-1 versus parent steroid): ~ 6 kJ/mol
- dissociation constant for CYP3A4 relative to CYP17A1 (CYP3A4 [1]; CYP3A4 versus CYP17A1): more than a billion times higher
- Kd (CYP3A4 [1]; human, pH 7.4, dissociation constant (Kd), protein 200 nM, 5 cm cuvette, tight-binding or quadratic equation, Fig. 4B: n = 3, 95% CI 120–215 nM): 167 nM
- Soret shift on titration indicating Fe—CN—R bond formation (CYP3A4 [1]; titration of CYP3A4): 435 nm
- difference spectrum peak indicative of Fe—CN bond formation (CYP3A4 [1]; titration of CYP3A4): 435 nm
- Soret peak after reoxidation in air (CYP3A4 [2]; CYP3A4/20-(R)-1, 103 min): ~ 435 nm and 437.5 nm
- reoxidation of reduced complex in air (CYP3A4 [2]; CYP3A4/20-(R)-1, 103 min): slowly re-oxidizes
- split Soret after reduction, higher-wavelength maximum (CYP3A4 [2]; [3]): 454 nm
- split Soret after reduction, lower-wavelength maximum (CYP3A4 [2]; [3]): 428 nm
- spectral response / binding mode on CYP106A2 (CYP106A2): does not cause spectral perturbation
- spectral response / binding mode on CYP106A2 (CYP106A2; listed as 20-(R)-1): no evidence for formation of a Fe—C bonded complex
